Measured values from PMC6731595, “The anti-parasitic agent suramin and several of its analogues are inhibitors of the DNA binding protein Mcm10” (Open Biology, 2019).
Where two headings read alike, the source gives them in different places.

Legend:
[1] = target: T1, full-length Xenopus Mcm10 (xMcm10-FL) (Xenopus laevis, UniProt Q5EAW4); assay: Fluorescence polarization competition assay, displacement of 5′-6FAM ssDNA probe from xMcm10-FL; format: binding; conditions: averages of n = 2; xMcm10-FL 2 μM
T1 construct: The full-length xMcm10 was expressed with MBP fused onto the N-terminus and 6x-His tag attached to the C-terminus; 6xHis (C); made in house; host or cells: E. coli BL21(DE3), as for the ID constructs ('as described above')
T1 sequence (Q5EAW4 1-860): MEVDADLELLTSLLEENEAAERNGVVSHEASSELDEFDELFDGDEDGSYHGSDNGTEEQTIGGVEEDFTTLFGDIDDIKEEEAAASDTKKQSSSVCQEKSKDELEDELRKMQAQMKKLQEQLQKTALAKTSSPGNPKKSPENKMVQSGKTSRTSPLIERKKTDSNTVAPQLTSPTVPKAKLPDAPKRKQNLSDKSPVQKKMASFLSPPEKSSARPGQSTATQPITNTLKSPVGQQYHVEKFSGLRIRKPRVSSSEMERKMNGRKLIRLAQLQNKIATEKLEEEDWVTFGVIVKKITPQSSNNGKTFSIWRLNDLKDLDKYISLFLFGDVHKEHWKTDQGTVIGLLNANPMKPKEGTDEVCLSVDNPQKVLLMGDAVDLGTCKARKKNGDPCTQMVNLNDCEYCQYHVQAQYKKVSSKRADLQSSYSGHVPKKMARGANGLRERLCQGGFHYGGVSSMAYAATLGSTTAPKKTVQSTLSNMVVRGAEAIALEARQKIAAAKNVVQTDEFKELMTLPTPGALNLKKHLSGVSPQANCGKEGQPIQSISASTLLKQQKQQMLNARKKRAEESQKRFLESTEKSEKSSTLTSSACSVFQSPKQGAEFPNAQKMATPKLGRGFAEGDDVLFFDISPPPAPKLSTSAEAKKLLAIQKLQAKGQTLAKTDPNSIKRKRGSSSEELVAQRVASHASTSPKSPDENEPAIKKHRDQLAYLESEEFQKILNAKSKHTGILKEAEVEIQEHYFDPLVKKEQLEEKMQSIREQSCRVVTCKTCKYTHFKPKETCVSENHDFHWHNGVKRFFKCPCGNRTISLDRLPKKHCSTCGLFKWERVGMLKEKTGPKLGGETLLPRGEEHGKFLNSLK
Protocol: (§1) A fluorescence polarization (FP) HTS assay was established to detect inhibitors of the binding of the 5′-6FAM 10-mer oligo probe to Mcm10. Test compounds dissolved in DMSO were added to 384-well plates (Corning 4514) using an Echo 550 acoustic dispenser (final DMSO 0.1%) to achieve a final single point screening concentration of 10 µM. Then 10 µl of 2× Xenopus internal domain Mcm10 (xMcm10-ID, final concentration 2 µM) in binding buffer (20 mM Tris HCl, 100 mM NaCl, 5% glycerol, and 0.01% triton, pH 7.5) was added using the Combi nL Multidrop dispenser. Finally, 10 µl of 2× 5′-6FAM DNA (final 12.5 nM) in binding buffer was added using the Multidrop. DMSO (0.1%, high signal) and probe only (low signal) controls were included on every plate. Plates were mixed for 2 min, incubated for 60 min at RT in the dark, and read on a CLARIOstar multimode plate reader (excitation: 482-16, emission: 530-40, dichroic filter: LP504).
(§2) The LOPAC pilot screen identified the sulfhydryl reagent 4-chloromercuribenzoic acid as an inhibitor in the fluorescence polarization (FP) assay. As there was no known Mcm10 inhibitor, 4-chloromercuribenzoic acid (30 μM) was used as a positive control on initial screening plates. Following the discovery of suramin as a Mcm10 inhibitor, suramin (7 μM) was used as a positive control on subsequent screening plates. To confirm activity, screening hits were tested in dose response experiments (8 concentrations in duplicate) using xMcm10-ID. Similar dose response experiments were conducted with suramin and its analogs to confirm activity for hMcm10-ID (1 μM) and xMcm10-FL (2 μM) and to determine selectivity relative to RPA70AB (0.4 μM). Saturation experiments for each protein were conducted using increasing concentrations of protein with a fixed probe concentration (12.5 nM). FP was measured in mP units, and ∆mP values for each well were calculated as the difference between the measured mP and the average of the “probe only” controls. […] The parallel and perpendicular mP values were also used to calculate total fluorescence intensity (TFI) determined by the sum of parallel mP + (2 x perpendicular mP). TFI was used to detect fluorescence interference by compounds [1]. […] IC50 values were calculated using the four parameter logistic equation in Prism 6.0 (GraphPad). Ki values were obtained using an online Ki calculator according to the equations of Nikolovska-Coleska (http://sw16.im.med.umich.edu/soft-ware/calc_ki/). KD values were calculated using the one site or two site binding equations in Prism 6.0 (GraphPad).

hMcm10-ID = target: T2, hMcm10-ID (Homo sapiens, UniProt Q7L590); assay: Surface plasmon resonance binding kinetics on immobilized hMcm10-ID (Biacore S200); conditions: for surface plasmon resonance hMcm10-ID kd / kon / Kd: 1:1 model, 6000–8000 RU; for surface plasmon resonance hMcm10-ID kd / kon: 25°C; for kon: read-out: surface plasmon resonance hMcm10-ID ka; for Kd: calculated from association and dissociation rate constants, read-out: surface plasmon resonance hMcm10-ID kinetic KD; for SPR binding kinetics (description of sensorgrams): immobilized hMcm10-ID
T2 construct: hMcm10-ID (residues 237 to 436) were expressed in E. coli strain BL21(DE3); 6xHis (HRV 3C site) (N, cleaved yes); made in house; host or cells: E. coli BL21(DE3)
T2 sequence (Q7L590 237-436): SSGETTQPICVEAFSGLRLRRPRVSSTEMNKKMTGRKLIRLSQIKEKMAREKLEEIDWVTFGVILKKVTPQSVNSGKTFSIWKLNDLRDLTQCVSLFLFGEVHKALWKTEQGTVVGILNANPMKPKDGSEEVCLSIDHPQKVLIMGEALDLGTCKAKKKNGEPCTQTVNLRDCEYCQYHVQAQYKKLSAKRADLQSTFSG
Protocol: SPR experiments were performed using a Biacore S200 (GE Healthcare) equipped with a research-grade CM5 sensor chip. hMcm10-ID, at a concentration of 15 µg ml^−1 in 10 mM sodium acetate, pH 4.5, […], using an amine coupling kit (GE Healthcare) to either flow cell 2 or 4 following manufacturer directions. The reference flow cell (either flow cell 1 or 3) was left untreated. All compounds were dissolved in running buffer (10 mM PBS, 150 mM NaCl, 0.005% P20, pH 7.4) prior to injection over the chip surface at a flow rate of 30 µl min^−1 and at a temperature of 25°C. Zero concentration samples were injected for double referencing. Data were collected at a rate of 40 Hz and were fitted to a simple 1 : 1 interaction model (unless otherwise noted) using the global data analysis within the Biacore S200 evaluation software.

[2] = target: T3, human Mcm10 internal domain (hMcm10-ID) (Homo sapiens, UniProt Q7L590); assay: Fluorescence polarization competition assay, displacement of 5′-6FAM 10-mer ssDNA probe from hMcm10-ID; format: binding; conditions: mean ± s.e.m., n ≥ 3; hMcm10-ID 1 μM, probe 12.5 nM
T3 construct: hMcm10-ID (residues 237 to 436) were expressed in E. coli strain BL21(DE3); 6xHis (HRV 3C site) (N, cleaved yes); made in house; host or cells: E. coli BL21(DE3)
T3 sequence (Q7L590 237-436): T2 sequence (Q7L590 237-436)
Protocol: as §1, §2

[3] = target: T4, human RPA70AB (A and B DNA binding domains of RPA70) (Homo sapiens, UniProt P27694); assay: Fluorescence polarization competition assay, displacement of 5′-6FAM ssDNA probe from RPA70AB; conditions: for Ki: mean ± s.e.m., n ≥ 3; for selectivity RPA/ hMcm10: ratio of hRPA70AB Ki2 to hMcm10-ID Ki (FP)
T4 construct: recombinant human RPA70AB (181-422) in a pSV281 vector; 6xHis (TEV site) (N, cleaved yes); made in house; host or cells: Escherichia coli BL21(DE3)
T4 sequence (P27694 181-422): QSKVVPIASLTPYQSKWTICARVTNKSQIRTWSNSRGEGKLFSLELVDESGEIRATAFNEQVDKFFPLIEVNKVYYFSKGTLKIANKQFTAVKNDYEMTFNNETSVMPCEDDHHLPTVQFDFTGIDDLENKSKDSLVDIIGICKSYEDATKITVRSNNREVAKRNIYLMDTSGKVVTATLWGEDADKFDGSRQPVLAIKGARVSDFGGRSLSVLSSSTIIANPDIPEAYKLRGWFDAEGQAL
Protocol: as §1, §2

[4] = test system: DNA replication of sperm chromatin in Xenopus egg extracts; assay: In vitro DNA replication assay in Xenopus S-phase egg extracts ([α-32P]dGTP incorporation); format: biochemical; conditions: 10, 50, 150 and 300 µM
Protocol: Xenopus egg extracts were prepared according to the method of Murray. Replication of sperm chromatin in S-phase egg extracts was monitored as previously described. Compounds identified by HTS were added to replication reactions immediately prior to addition of [α-^32P]dGTP (Perkin Elmer BLU514H250UC).
To determine whether the four remaining confirmed HTS hits affected DNA replication, in vitro replication assays were performed using Xenopus S-phase egg extracts incubated with sperm chromatin [25, 34]. DNA replication was measured in the presence of bronopol, fumarprotocetraric acid, iriginol and suramin or DMSO by the incorporation of [α-^32P]dGTP. […] For this reason, further studies focused on suramin alone.
Figure 1. Suramin inhibits DNA replication in an in vitro Xenopus replication assay. HTS hits were evaluated for inhibition of [α-^32P]dGTP incorporation into DNA using a cell-free extract prepared from Xenopus eggs at increasing concentrations (10, 50, 150 and 300 µM indicated by black triangle from right to left). No chemical (–) and DMSO were used as negative controls for replication inhibition (far left and far right lanes).

[5] = target: T5, Xenopus internal domain Mcm10 (xMcm10-ID) (Xenopus laevis, UniProt Q5EAW4); assay: Fluorescence polarization HTS and dose-response assay, 5′-6FAM probe binding to xMcm10-ID; conditions: dose-response with repurchased or purchased compound
T5 construct: xMcm10-ID (amino acid residues 229 to 427); 6xHis (HRV 3C site) (N, cleaved yes); made in house; host or cells: E. coli BL21(DE3)
T5 sequence (Q5EAW4 229-427): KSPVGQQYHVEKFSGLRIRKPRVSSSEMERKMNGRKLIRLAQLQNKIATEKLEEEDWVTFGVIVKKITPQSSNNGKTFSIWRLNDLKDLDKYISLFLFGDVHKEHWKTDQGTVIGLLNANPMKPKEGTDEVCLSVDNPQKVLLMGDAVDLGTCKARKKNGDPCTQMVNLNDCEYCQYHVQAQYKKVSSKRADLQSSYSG
Protocol: as §1, §2

[6] = predominant low-affinity (or only) component, read-out: fluorescence polarization hRPA70AB Ki2

SMILES	Ki [1]	surface plasmon resonance hMcm10-ID kd (hMcm10-ID)	kon (hMcm10-ID)	Kd (hMcm10-ID)	SPR binding kinetics (description of sensorgrams) (hMcm10-ID)	Ki [2]	Ki [3, 6]	selectivity RPA/ hMcm10 [3]	DNA replication, [α-32P]dGTP incorporation (result in words) [4]	inhibition of 5′-6FAM probe binding to xMcm10-ID (result in words) [5]	also measured
O=C(Nc1cc(C(=O)Nc2ccc(S(=O)(=O)O)cc2)cc(C(=O)Nc2ccc(S(=O)(=O)O)cc2)c1)Nc1cc(C(=O)Nc2ccc(S(=O)(=O)O)cc2)cc(C(=O)Nc2ccc(S(=O)(=O)O)cc2)c1 [NF110]	2.9 µM	0.35 ± 0.19 s^−1	290000 ± 1.6e+10 M⁻¹ s⁻¹	1.5 ± 0.2 µM	predominantly rapid kinetics	2.3 ± 0.1 µM	23 ± 1 µM	10			Ki ([3]; high-affinity component of biphasic displacement curve, read-out: fluorescence polarization hRPA70AB Ki1): 0.21 ± 0.04 µM
Cc1cc(O)c(C=O)c2c1C(=O)Oc1c(COC(=O)/C=C/C(=O)O)c(O)c(C(=O)O)c(C)c1O2 [fumarprotocetraric acid]									only suramin exhibited a dose-dependent decrease in DNA replication	active	
O=C(Nc1cc(C(=O)Nc2ccc(S(=O)(=O)O)cc2S(=O)(=O)O)cc(C(=O)Nc2ccc(S(=O)(=O)O)cc2S(=O)(=O)O)c1)Nc1cc(C(=O)Nc2ccc(S(=O)(=O)O)cc2S(=O)(=O)O)cc(C(=O)Nc2ccc(S(=O)(=O)O)cc2S(=O)(=O)O)c1 [NF449]	1.9 µM	0.59 ± 0.10 s^−1	780000 ± 1e+09 M⁻¹ s⁻¹	0.74 ± 0.13 µM	predominantly rapid kinetics	0.44 ± 0.04 µM	14 ± 0.4 µM	32			selectivity for hMcm10 over RPA70AB ([3]; FP): more than 10 fold; IC50 ([3]; below lower limit of the sensitivity of the assay, read-out: IC50 value for the high affinity component, hRPA70AB): 0.093 µM
O=C(O)c1cc[c]([Hg][Cl])cc1 [4-chloromercuribenzoic acid]										active	
CC(=O)Oc1cc(-c2coc3cc(OC(C)=O)c(OC(C)=O)c(OC(C)=O)c3c2=O)cc(OC(C)=O)c1OC(C)=O [iriginol hexaacetate]									only suramin exhibited a dose-dependent decrease in DNA replication	active	
O=[N+]([O-])C(Br)(CO)CO [bronopol]									only suramin exhibited a dose-dependent decrease in DNA replication	active	
